The target of experiment [1] is T1, GST-tagged KRAS G12D (2-169) (Homo sapiens, UniProt P01116, G12D).
T1 construct: GST-tagged KRAS^G12D (2-169, Reaction Biology, MSC-11-539); purchased Reaction Biology MSC-11-539 (KRAS G12D); MSC-11-502 (SOS1cat)
The experiment is described as follows: Nucleotide exchange assay (NEA), HTRF of SOS-mediated GTP-DY-647P1 binding. The experiment is classed as biochemical. The conditions noted are these: 5 nM GST-KRAS G12D, 20 nM SOScat, 150 nM GTP; compound 1 h at RT. The method in brief:
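After 1 h RT preincubation of compound with KRAS, SOS1cat (20 nM final) and fluorescent GTP analog (150 nM) were added to 5 nM KRAS; HTRF (anti-GST Tb donor) followed at RT for up to 90 min. % inhibition relative to DMSO and no-SOS1 blank, 4-parameter curve fit.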
On the technique in general: Time-resolved FRET reads energy transfer from a long-lived donor to a nearby acceptor.

Experiment [2] has as its system AGS (KRAS G12D) cells, phospho-ERK. Description: pERK In Cell Western (ICW) assay (Method B). The class given is cell-based. The conditions noted are these: Homo sapiens, 3 hours. On the procedure:
pERK ICW is a high throughput screening assay to evaluate the cellular potency of mutant KRAS small molecule inhibitors. KRAS mutant cell line AGS (KRAS^G12D) were purchased from ATCC and maintained in DMEM and RPMI medium supplemented with 10% fetal bovine serum and Penicillin/Streptomycin.
Cells grown in exponential phase were trypsinized, resuspended in fresh media, and viable cells were counted using a cell counter with Trypan Blue (BioRad TC20). Cells were seeded into 384-well plate (Greiner 781091) at density of 5,000 cells/well for AGS and allowed to grow overnight in a 37° C. CO2 incubator. The next day, compounds were dispensed into wells with a ½ log, 10-point serial dilution and top concentration of 10 μM using Tecan D300e dispenser and incubated for 3 hours in a 37° C. CO2 incubator. Cells were then fixed with paraformaldehyde (Electron Microscopy Sciences, 15710, 4% final concentration) for 30 min, permeabilized with wash buffer (1×PBS+0.1% Triton X-100) for 30 min and blocked with Odyssey blocking buffer (Li—COR 927-70001) for 1 hour, all at room temperature (RT). Phospho-ERK antibody (CST 4370L) was diluted 1:500 in Odyssey blocking+0.2% Tween 20 and incubated with cells overnight at 4° C. The next day, plates were washed 5× with wash buffer, incubated with IRDye 800 CW, Goat anti-Rabbit secondary antibody (Li—COR 926-32211, 1:500) and DRAQ5 (CST 4084L, 1:5,000) diluted in Odyssey blocking+0.2% Tween 20 for 1 hour, washed 5×, and imaged on an Odyssey CLx imaging system.
For data analysis, signal intensities from 800 (phosphor-ERK) and 700 (DRAQ5) channels were extracted, and phospho-ERK signals were normalized to DRAQ5 signals for each well and percent of DMSO control values were computed. Data were then imported into Graphpad Prism to compute half-maximal inhibitory concentrations (IC50) using a 4-parameter variable slope model. Z-factor for each plate was computed from signals derived from wells treated with either DMSO or 5 μM of Trametinib. AGS pERK ICW (Method B) IC50 (uM) values of selected compounds are depicted in Table 2 with compounds having a value 0.001 uM to 0.01 uM as ++++; >0.01 uM to 0.1 uM as +++; >0.1 uM to 1 uM as ++; 1 uM to 10 uM as + and >10 uM as NA.

In experiment [3] the target is T2, KRAS G12D/RAF1 (Homo sapiens, UniProt P01116, G12D).
T2 construct: KRAS (1-169) proteins were expressed in E. coli at 18° C; His6-MBP (N, cleaved yes); made in house; host or cells: E. coli
Description: Protein-protein interaction (PPI) HTRF assay KRAS G12D/RAF1. The experiment is classed as binding. The conditions noted are these: KRAS G12D/RAF1, GppNHp-loaded KRAS; 30 minutes pre-incubation. In a few lines:
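IC50 values come from the 665/615 HTRF ratio, scaled between no-compound (0% inhibition) and untagged RAF1 (100%). GppNHp-exchanged, biotinylated RAS (1-169) solution at 16 nM met compound for 30 min at room temperature. Then 16 nM His-tagged RAF1 (52-131) donor solution was added and incubated 1 h.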

The source of these data is patent US11912723B2, “KRAS modulators and uses thereof” (Quanta Therapeutics, Inc., priority 2022, dated 2024).

Usually IC50 stands for the concentration that inhibits the measured activity by half. A lower IC50 goes with greater potency in that assay.

Turning to `Oc1ccc(Cl)c2c1C1(CC2)Cc2nc(OC[C@@]34CCCN3C[C@H](F)C4)nc(N3CCCCCC3)c2CO1` (mixture of isomers) [Compound 9, 4-(azepan-1-yl)-7′-chloro-2-[[rac-(2R,8S)-2-fluoro-1,2,3,5,6,7-hexahydropyrrolizin-8-yl]methoxy]spiro[5,8-dihydropyrano[4,3-d]pyrimidine-7,3′-indane]-4′-ol], the IC50 was 1 to 20 µM in experiment [1] and 1 to 10 µM in experiment [2].

As to `CN(C)C(=O)c1cc2n(n1)CCCN(c1nc(OC[C@@]34CCCN3C[C@H](F)C4)nc3c1COC1(CCc4ccc(OC(F)F)cc41)C3)C2` (mixture of isomers) [Compound 41, 5-[6′-(difluoromethoxy)-2-[[rac-(2R,8S)-2-fluoro-1,2,3,5,6,7-hexahydropyrrolizin-8-yl]methoxy]spiro[5,8-dihydropyrano[4,3-d]pyrimidine-7,1′-indane]-4-yl]-N,N-dimethyl-4,6,7,8-tetrahydropyrazolo[1,5-a][1,4]diazepine-2-carboxamide], the IC50 in experiment [1] was 1 to 20 µM; in experiment [2], more than 10 µM.

Turning to `CN(C)C(=O)c1cc2n(n1)CCCN(c1nc(OC[C@@]34CCCN3C[C@H](F)C4)nc3c1COC1(CCc4c(OC(F)F)cccc41)C3)C2` (mixture of isomers) [Compound 48, 5-[4′-(difluoromethoxy)-2-[[rac-(2R,8S)-2-fluoro-1,2,3,5,6,7-hexahydropyrrolizin-8-yl]methoxy]spiro[5,8-dihydropyrano[4,3-d]pyrimidine-7,1′-indane]-4-yl]-N,N-dimethyl-4,6,7,8-tetrahydropyrazolo[1,5-a][1,4]diazepine-2-carboxamide], the IC50 in experiment [1] was 1 to 20 µM; in experiment [2], more than 10 µM.

`CN(C)C(=O)c1cc2n(n1)CCCN(c1nc(OC[C@@]34CCCN3C[C@H](F)C4)nc3c1CN(C)[C@]1(CCCc4ccc(O)cc41)C3)C2` [Compound 39B, 5-[(7R)-2-[[(2R,8S)-2-fluoro-1,2,3,5,6,7-hexahydropyrrolizin-8-yl]methoxy]-7′-hydroxy-6-methyl-spiro[5,8-dihydropyrido[4,3-d]pyrimidine-7,1′-tetralin]-4-yl]-N,N-dimethyl-4,6,7,8-tetrahydropyrazolo[1,5-a][1,4]diazepine-2-carboxamide]: the values for the IC50 in experiment [1] and in experiment [2] were 1 to 20 µM and more than 10 µM, respectively.

For `COc1cccc(-c2cc3n(n2)CCCN(c2nc(OC[C@@]45CCCN4C[C@H](F)C5)nc4c2CN(C)[C@@]2(CCCc5ccccc52)C4)C3)n1` [Compound 89, (7S)-2-[[(2R,8S)-2-fluoro-1,2,3,5,6,7-hexahydropyrrolizin-8-yl]methoxy]-4-[2-(6-methoxy-2-pyridyl)-4,6,7,8-tetrahydropyrazolo[1,5-a][1,4]diazepin-5-yl]-6-methyl-spiro[5,8-dihydropyrido[4,3-d]pyrimidine-7,1′-tetralin]], the IC50 in experiment [1] is 0.1 to 1 µM; in experiment [3], more than 100 µM.

As for `CN1Cc2c(nc(OC[C@@]34CCCN3C[C@H](F)C4)nc2N2CCn3cncc3C2)C[C@]12CCCc1ccccc12` [Compound 91, (7S)-4-(6,8-dihydro-5H-imidazo[1,5-a]pyrazin-7-yl)-2-[[(2R,8S)-2-fluoro-1,2,3,5,6,7-hexahydropyrrolizin-8-yl]methoxy]-6-methyl-spiro[5,8-dihydropyrido[4,3-d]pyrimidine-7,1′-tetralin]], the IC50 in experiment [1] is 1 to 20 µM; in experiment [3], more than 100 µM.

Regarding `CN1Cc2c(nc(OC[C@@]34CCCN3C[C@H](F)C4)nc2N2CCCn3nc(-c4cccc(O)n4)cc3C2)C[C@]12CCCc1ccccc12` [Compound 92, 6-[5-[(7S)-2-[[(2R,8S)-2-fluoro-1,2,3,5,6,7-hexahydropyrrolizin-8-yl]methoxy]-6-methyl-spiro[5,8-dihydropyrido[4,3-d]pyrimidine-7,1′-tetralin]-4-yl]-4,6,7,8-tetrahydropyrazolo[1,5-a][1,4]diazepin-2-yl]pyridin-2-ol], the IC50 was 0.1 to 1 µM in experiment [1] and more than 100 µM in experiment [3].

As to `CN1Cc2c(nc(OC[C@@]34CCCN3C[C@H](F)C4)nc2N2CCCn3nc(-c4ccccn4)c(Cl)c3C2)C[C@]12CCCc1ccccc12` [Compound 93, (7S)-4-[3-chloro-2-(2-pyridyl)-4,6,7,8-tetrahydropyrazolo[1,5-a][1,4]diazepin-5-yl]-2-[[(2R,8S)-2-fluoro-1,2,3,5,6,7-hexahydropyrrolizin-8-yl]methoxy]-6-methyl-spiro[5,8-dihydropyrido[4,3-d]pyrimidine-7,1′-tetralin]], the values for the IC50 in experiment [1] and in experiment [3] were less than 0.01 µM and 10 to 100 µM, respectively.

As for `C[C@@H]1Cn2cncc2CN1c1nc(OC[C@@]23CCCN2C[C@H](F)C3)nc2c1CN(C)[C@@]1(CCCc3ccccc31)C2` [Compound 94, (7S)-2-[[(2R,8S)-2-fluoro-1,2,3,5,6,7-hexahydropyrrolizin-8-yl]methoxy]-6-methyl-4-[(6R)-6-methyl-6,8-dihydro-5H-imidazo[1,5-a]pyrazin-7-yl]spiro[5,8-dihydropyrido[4,3-d]pyrimidine-7,1′-tetralin]], the IC50 was 1 to 20 µM in experiment [1] and more than 100 µM in experiment [3].

In the case of `CN(C)C(=O)c1nn2c(c1Cl)CN(c1nc(OCC3(CN4CCOCC4)CC3)nc3c1CN(C)[C@@]1(CCCc4ccccc41)C3)CCC2` [Compound 95, 3-chloro-N,N-dimethyl-5-[(7S)-6-methyl-2-[[1-(morpholinomethyl)cyclopropyl]methoxy]spiro[5,8-dihydropyrido[4,3-d]pyrimidine-7,1′-tetralin]-4-yl]-4,6,7,8-tetrahydropyrazolo[1,5-a][1,4]diazepine-2-carboxamide], the IC50 is less than 0.01 µM in experiment [1] and more than 100 µM in experiment [3].

For the molecule `CN1Cc2c(nc(OC[C@@]34CCCN3C[C@H](F)C4)nc2N2CCCn3nc(CC#N)c(Cl)c3C2)C[C@]12CCCc1ccccc12` [Compound 98, 2-[3-chloro-5-[(7S)-2-[[(2R,8S)-2-fluoro-1,2,3,5,6,7-hexahydropyrrolizin-8-yl]methoxy]-6-methyl-spiro[5,8-dihydropyrido[4,3-d]pyrimidine-7,1′-tetralin]-4-yl]-4,6,7,8-tetrahydropyrazolo[1,5-a][1,4]diazepin-2-yl]acetonitrile], the IC50 in experiment [1] was less than 0.01 µM; in experiment [3], more than 100 µM.

With `CCN1Cc2c(nc(OC[C@@]34CCCN3C[C@H](F)C4)nc2N2CCCn3nc(C(=O)N(C)C)c(Cl)c3C2)C[C@]12CCCc1ccccc12` [Compound 100, 3-chloro-5-[(7S)-6-ethyl-2-[[(2R,8S)-2-fluoro-1,2,3,5,6,7-hexahydropyrrolizin-8-yl]methoxy]spiro[5,8-dihydropyrido[4,3-d]pyrimidine-7,1′-tetralin]-4-yl]-N,N-dimethyl-4,6,7,8-tetrahydropyrazolo[1,5-a][1,4]diazepine-2-carboxamide], the values for the IC50 in experiment [1] and in experiment [3] were 0.01 to 0.1 µM and more than 100 µM, respectively.

For the molecule “[5-[(7S)-4′-chloro-2-[[(2R,8S)-2-fluoro-1,2,3,5,6,7-hexahydropyrrolizin-8-yl]methoxy]spiro[5,8-dihydropyrano[4,3-d]pyrimidine-7,1′-indane]-4-yl]-4,6,7,8-tetrahydropyrazolo[1,5-a][1,4]diazepin-2-yl]-pyrrolidin-1-yl-methanone [Compound 34]”, the IC50 in experiment [1] is less than 0.01 µM; in experiment [3], more than 100 µM.
